One data set concerns HeLa S3 cells. Description: Growth Inhibition Test on HeLa S3 Cells. The conditions noted are these: Homo sapiens, 1 hour exposure, then 72 hours incubation, Neutral Red, 550 nm. The data set is classed as cell-based. The protocol: Growth Inhibition Test on HeLa S3 Cells
HeLa S3 cells were suspended in a MEM medium containing 10% fetal calf serum and 2 mM glutamine at a concentration of 3×10^4 cells/ml, and 0.1 ml of the cell suspension was put into each well of a 96-well microtiter plate.
After culturing at 37° C. overnight in a carbon dioxide gas incubator, 0.05 ml of a test sample appropriately diluted with the medium was added to each well. The cells were further cultured for one hour in the carbon dioxide gas incubator and the culture supernatant was removed. The residue was washed once with a phosphate buffer saline [PBS(-)] and 0.1 ml of a fresh medium was added to each well, and the cells were further incubated at 37° C. for 72 hours in the carbon dioxide gas incubator. After removal of the supernatant, 0.1 ml of a culture medium containing 0.02% Neutral Red was added to each well, and the cells were further incubated at 37° C. for one hour in the carbon dioxide gas incubator to stain the cells. After removal of the culture supernatant, each well was washed once with a physiological saline, and the dye was extracted with 0.001 N HCl/30% methanol. Absorbance of the extract at 550 nm was measured with a microplate reader. The cell growth inhibition percentage was calculated according to the following formula from the absorbance of the extract of the cells treated with the test compound in various concentrations and that of intact cells. [formula]
From the cell growth inhibition percentage thus obtained, the concentration of the test compound which inhibits cell growth by 50% (IC50) was determined.

The next data set concerns Sarcoma 180 Solid Tumor. Nature of the data set: Anti-tumor Activity to Sarcoma 180 Solid Tumor. The conditions noted are these: Mus musculus, Sarcoma-180, iv, 168 h; dose of showing T/C=0.5 (tumor volume), male ddY mice, single i.v. 24 hours after s.c. implantation, measured at 7 days. The data set is classed as in vivo. The protocol: Anti-tumor Activity to Sarcoma 180 Solid Tumor
5×10^6 Sarcoma 180 cells were abdominally implanted into a ddY mouse and the cells were collected from the ascites of the mouse 7 days after the implantation. The cells were washed once with a sterilized physiological saline solution and then suspended in a sterilized physiological saline solution to prepare a cell suspension of 5×10^7 cells/ml. 0.1 ml of the cell suspension was subcutaneously implated into the right axillary space of each of male ddY mice weighing 20±2 g.
A test compound was dissolved in a physiological saline solution or a polyoxyethylene sorbitan monolaurate-containing physiological saline solution, and 0.1 to 0.2 ml of the solution was intravenously injected to five mice as one group 24 hours after the implatation of the tumor cells.
The anti-tumor activity of the test compound was determined by measuring the major diameter (a) and the minor diameter (b) of the tumor 7 days after the implantation of tumor cells, and the value of (a×b^2/ 2), which corresponds to the volume of the tumor, was calculated. The intended anti-tumor activity is represented by a ratio of T/C, in which C indicates the tumor volume of mice of the control group to which a physiological saline solution instead of the test compound was administered and T indicates the tumor volume of mice of the test group to which the test compound was administered. T/C at each dose given was plotted in a graph in which T/C is shown by an ordinary scale on the vertical axis and a dose is shown by a logarithmic scale on the horizontal axis. The relation between the dose and T/C was determined to be a straight line by the least-squares method. From the regression formula of the straight line thus obtained, the dose of showing T/C=0.5 is calculated to give ED50.

Data set [1] can be described thus: Acute Toxicity (single intravenous injection). The conditions noted are these: mouse, in vivo, ddY mice, single i.v., 14 days observation, Behrens Kaerber's method. The protocol: A test compound was intravenously injected once to five ddY mice as one group. […] LD50 was calculated from the death rate of each group according to the Behrens Kaerber's method.

Where only a bound is given, the exact number is not on record here.

Broadly, the IC50 is the point on the concentration scale where inhibition reaches its midpoint. One may read the ED50 as the dose at which the effect has come halfway, by size or by number of responders. Higher therefore signals weaker potency. Broadly, the LD50 is the dose expected to kill half of the subjects tested. A higher LD50 goes with lower toxicity. `CO[C@@]12[C@H](COC(N)=O)C3=C(C(=O)C(CSC4=NCCS4)=C(N)C3=O)N1C[C@@H]1N[C@@H]12` [Compound 11, 6-Demethyl-6-[(2-thiazolinylthio)methyl]mitomycin C]: the IC50 in the data set with HeLa S3 cells was determined as 0.82 µM. The compound also came in with an ED50 with Sarcoma 180 Solid Tumor of 5.9 mg/kg. This compound also yielded an LD50 at 336 h in data set [1] of 9.4 mg/kg.
Compound `CO[C@@]12[C@H](COC(N)=O)C3=C(C(=O)C(CSc4ncccn4)=C(N)C3=O)N1C[C@@H]1N[C@@H]12` [Compound 3, 6-Demethyl-6-[(2-pyrimidinylthio)methyl]mitomycin C] displayed an IC50 in the data set with HeLa S3 cells of 0.95 µM. Moreover, the 50% effect level in the data set on Sarcoma 180 Solid Tumor (ED50) was put at a dose of 8.9 mg/kg. Moreover, in data set [1], the median lethal dose (LD50) at 336 h worked out at 26 mg/kg.
In the data set on HeLa S3 cells, `CO[C@@]12[C@H](COC(N)=O)C3=C(C(=O)C(CSc4nc(C)cc(C)n4)=C(N)C3=O)N1C[C@@H]1N[C@@H]12` [Compound 4, 6-Demethyl-6-[[(4,6-dimethylpyrimidin-2-yl)thio]methyl]mitomycin C] gave an IC50 of 1.1 µM.
Compound `CO[C@@]12[C@H](COC(N)=O)C3=C(C(=O)C(CS[C@@H]4O[C@H](COC(C)=O)[C@@H](OC(C)=O)[C@H](OC(C)=O)[C@H]4OC(C)=O)=C(N)C3=O)N1C[C@@H]1N[C@@H]12` [Compound 16, 6-Demethyl-6-[[(2,3,4,6-tetra-O-acetyl-β-D-glucopyranosyl)thio]methyl]mitomycin C] yielded an IC50 with HeLa S3 cells of 1.1 µM. In addition, the median effective dose (ED50) in the data set on Sarcoma 180 Solid Tumor was found to be 24 mg/kg. In addition, in data set [1], the 50% lethal dose (LD50) at 336 h was determined as 38 mg/kg.
For `CO[C@@]12[C@H](COC(N)=O)C3=C(C(=O)C(CSc4nccs4)=C(N)C3=O)N1C[C@@H]1N[C@@H]12` [Compound 12, 6-Demethyl-6-[(2-thiazolylthio)methyl]mitomycin C], in the data set on HeLa S3 cells, inhibition was half-maximal at 1.4 µM (IC50).
Compound `CO[C@@]12[C@H](COC(N)=O)C3=C(C(=O)C(CSc4nc5ccccc5s4)=C(N)C3=O)N1C[C@@H]1N[C@@H]12` [Compound 13, 6-Demethyl-6-[(2-benzothiazolylthio)methyl]mitomyc-in C] had an IC50 in the data set with HeLa S3 cells of 0.7 µM. Besides, in the data set on Sarcoma 180 Solid Tumor, the ED50 stood at 36 mg/kg. Also, the 50% lethal dose (LD50) at 336 h in data set [1] is over 50 mg/kg.
The like results for `CO[C@@]12[C@H](COC(N)=O)C3=C(C(=O)C(CSc4ncccc4O)=C(N)C3=O)N1C[C@@H]1N[C@@H]12` [Compound 2, 6-Demethyl-6-[[(3-hydroxypyridin-2-yl)thio]methyl]mitomycin C] were, in that order, 0.19 µM, 3.7 mg/kg and 15 mg/kg.
In the data set with HeLa S3 cells, `CO[C@@]12[C@H](COC(N)=O)C3=C(C(=O)C(CSc4ccccn4)=C(N)C3=O)N1C[C@@H]1N[C@@H]12` [Compound 1, 6-Demethyl-6-[(2-pyridylthio)methyl]mitomycin C] returned a half-maximal inhibitory concentration (IC50) of 1.8 µM.

Values taken from patent US5180825A, “Mitomycin derivatives” (Kyowa Hakko Kogyo Co., Ltd., priority 1990, dated 1993).
